Measured values from patent US20110173718A1, “HERBICIDE TOLERANT PLANTS” (SYNGENTA CROP PROTECTION, INC., priority 2008, published 2011).

Assays:
weeds [1] = experiment: Glasshouse weed control by HST/HPPD (mesotrione) mixtures, pre-emergence; type: in vivo; conditions: for colby: Colby synergy score; for % Damage at 14 DAA, 1 g ai ha^−1 mesotrione / % Damage at 14 DAA, no-mesotrione: N = 3
Description: (§1) Weed seeds are planted out in trays containing suitable soil (for example 50% peat, 50% John Innes soil no 3) and grown in the glass house conditions under 24-27° C. day; 18-21° C. night and approximately a 14 h (or longer in UK summer) photoperiod. Humidity is ˜65% and light levels up to 2000 μmol/m^2 at bench level. Trays are sprayed with test chemicals dissolved in water with 0.2-0.25% X-77 surfactant and sprayed from a boom on a suitable track sprayer moving at about 2 mph in a suitable track sprayer (for example a DeVries spray chamber with the nozzle about 2 inches from the plant tops). Spray volume is suitably 500-1000 l/ha. Sprays are carried out both pre-emergence and over small plants at about 7-12 d post-emergence
(§2) Plants are assessed 14 DAT and herbicidal damage is scored on a scale from 0 to 100%. The HST inhibitor compound 2.30 (designated compound A in table 16 and 17), haloxydine (compound 1.1) and compound 2.13 (designated compound AE in tables 16 and 17) are sprayed at rates between 0 and 500 g/ha.

weeds [2] = experiment: Glasshouse weed control by HST/HPPD (mesotrione) mixtures, post-emergence; type: in vivo; conditions: post-emergence; for % damage, 1 g ai ha^−1 mesotrione / % damage, no-mesotrione: 14 DAT; for colby: difference to Colby expectation
Description: as §1, §2

[3] = SETFA, 125 g/ha + mesotrione 1 g ai/ha
[4] = SETFA, 250 g/ha + mesotrione 1 g ai/ha
[5] = SETFA, 500 g/ha + mesotrione 1 g ai/ha
[6] = SOLNI, 16 g/ha + mesotrione 1 g ai/ha
[7] = SOLNI, 31 g/ha + mesotrione 1 g ai/ha
[8] = SOLNI, 63 g/ha + mesotrione 1 g ai/ha
[9] = SOLNI, 125 g/ha + mesotrione 1 g ai/ha
[10] = SOLNI, 250 g/ha + mesotrione 1 g ai/ha
[11] = SOLNI, 500 g/ha + mesotrione 1 g ai/ha
[12] = ALOMY, 16 g/ha + 1 g ai/ha mesotrione
[13] = ALOMY, 31 g/ha + 1 g ai/ha mesotrione
[14] = ALOMY, 63 g/ha + 1 g ai/ha mesotrione
[15] = ALOMY, 125 g/ha + 1 g ai/ha mesotrione
[16] = ALOMY, 250 g/ha + 1 g ai/ha mesotrione
[17] = ALOMY, 500 g/ha + 1 g ai/ha mesotrione
[18] = ECHCG, 16 g/ha + 1 g ai/ha mesotrione
[19] = ECHCG, 31 g/ha + 1 g ai/ha mesotrione
[20] = ECHCG, 63 g/ha + 1 g ai/ha mesotrione
[21] = ECHCG, 125 g/ha + 1 g ai/ha mesotrione
[22] = ECHCG, 250 g/ha + 1 g ai/ha mesotrione
[23] = ECHCG, 500 g/ha + 1 g ai/ha mesotrione
[24] = SETFA, 16 g/ha + 1 g ai/ha mesotrione
[25] = SETFA, 31 g/ha + 1 g ai/ha mesotrione
[26] = SETFA, 63 g/ha + 1 g ai/ha mesotrione
[27] = SETFA, 125 g/ha + 1 g ai/ha mesotrione
[28] = SETFA, 250 g/ha + 1 g ai/ha mesotrione
[29] = SETFA, 500 g/ha + 1 g ai/ha mesotrione

CC(C)C(=O)Oc1c(-c2c(F)ccc(Br)c2Cl)c(=O)n(CC(F)F)c2nccnc12 [Compound 2.30]
colby (weeds [1]; [3]): −2% | % Damage at 14 DAA, 1 g ai ha^−1 mesotrione (weeds [1]; [3]): 0% | % Damage at 14 DAA, no-mesotrione (weeds [1]; SETFA, 125 g/ha): 2% | colby (weeds [1]; [4]): 3% | % Damage at 14 DAA, 1 g ai ha^−1 mesotrione (weeds [1]; [4]): 7% | % Damage at 14 DAA, no-mesotrione (weeds [1]; SETFA, 250 g/ha): 3% | colby (weeds [1]; [5]): 10% | % Damage at 14 DAA, 1 g ai ha^−1 mesotrione (weeds [1]; [5]): 32% | % Damage at 14 DAA, no-mesotrione (weeds [1]; SETFA, 500 g/ha): 22% | colby (weeds [1]; [6]): −17% | % Damage at 14 DAA, 1 g ai ha^−1 mesotrione (weeds [1]; [6]): 0% | % Damage at 14 DAA, no-mesotrione (weeds [1]; SOLNI, 16 g/ha): 0% | colby (weeds [1]; [7]): −10% | % Damage at 14 DAA, 1 g ai ha^−1 mesotrione (weeds [1]; [7]): 7% | % Damage at 14 DAA, no-mesotrione (weeds [1]; SOLNI, 31 g/ha): 0% | colby (weeds [1]; [8]): −13% | % Damage at 14 DAA, 1 g ai ha^−1 mesotrione (weeds [1]; [8]): 3% | % Damage at 14 DAA, no-mesotrione (weeds [1]; SOLNI, 63 g/ha): 0% | colby (weeds [1]; [9]): −11% | % Damage at 14 DAA, 1 g ai ha^−1 mesotrione (weeds [1]; [9]): 8% | % Damage at 14 DAA, no-mesotrione (weeds [1]; SOLNI, 125 g/ha): 2% | colby (weeds [1]; [10]): 11% | % Damage at 14 DAA, 1 g ai ha^−1 mesotrione (weeds [1]; [10]): 30% | % Damage at 14 DAA, no-mesotrione (weeds [1]; SOLNI, 250 g/ha): 3% | colby (weeds [1]; [11]): 21% | % Damage at 14 DAA, 1 g ai ha^−1 mesotrione (weeds [1]; [11]): 75% | % Damage at 14 DAA, no-mesotrione (weeds [1]; SOLNI, 500 g/ha): 45% | % damage, 1 g ai ha^−1 mesotrione (weeds [2]; [12]): 2% | colby (weeds [2]; [12]): 0 | % damage, no-mesotrione (weeds [2]; ALOMY, 16 g/ha): 2% | % damage, 1 g ai ha^−1 mesotrione (weeds [2]; [13]): 3% | colby (weeds [2]; [13]): 0 | % damage, no-mesotrione (weeds [2]; ALOMY, 31 g/ha): 3% | % damage, 1 g ai ha^−1 mesotrione (weeds [2]; [14]): 10% | colby (weeds [2]; [14]): 5 | % damage, no-mesotrione (weeds [2]; ALOMY, 63 g/ha): 5% | % damage, 1 g ai ha^−1 mesotrione (weeds [2]; [15]): 20% | colby (weeds [2]; [15]): 7 | % damage, no-mesotrione (weeds [2]; ALOMY, 125 g/ha): 13% | % damage, 1 g ai ha^−1 mesotrione (weeds [2]; [16]): 22% | colby (weeds [2]; [16]): 7 | % damage, no-mesotrione (weeds [2]; ALOMY, 250 g/ha): 15% | % damage, 1 g ai ha^−1 mesotrione (weeds [2]; [17]): 35% | colby (weeds [2]; [17]): 12 | % damage, no-mesotrione (weeds [2]; ALOMY, 500 g/ha): 23% | % damage, 1 g ai ha^−1 mesotrione (weeds [2]; [18]): 17% | colby (weeds [2]; [18]): −2 | % damage, no-mesotrione (weeds [2]; ECHCG, 16 g/ha): 12% | % damage, 1 g ai ha^−1 mesotrione (weeds [2]; [19]): 38% | colby (weeds [2]; [19]): 13 | % damage, no-mesotrione (weeds [2]; ECHCG, 31 g/ha): 18% | % damage, 1 g ai ha^−1 mesotrione (weeds [2]; [20]): 42% | colby (weeds [2]; [20]): −5 | % damage, no-mesotrione (weeds [2]; ECHCG, 63 g/ha): 42% | % damage, 1 g ai ha^−1 mesotrione (weeds [2]; [21]): 53% | colby (weeds [2]; [21]): −7 | % damage, no-mesotrione (weeds [2]; ECHCG, 125 g/ha): 57% | % damage, 1 g ai ha^−1 mesotrione (weeds [2]; [22]): 68% | colby (weeds [2]; [22]): 0 | % damage, no-mesotrione (weeds [2]; ECHCG, 250 g/ha): 65% | % damage, 1 g ai ha^−1 mesotrione (weeds [2]; [23]): 75% | colby (weeds [2]; [23]): 6 | % damage, no-mesotrione (weeds [2]; ECHCG, 500 g/ha): 67% | % damage, 1 g ai ha^−1 mesotrione (weeds [2]; [24]): 18% | colby (weeds [2]; [24]): −5 | % damage, no-mesotrione (weeds [2]; SETFA, 16 g/ha): 23% | % damage, 1 g ai ha^−1 mesotrione (weeds [2]; [25]): 42% | colby (weeds [2]; [25]): 10 | % damage, no-mesotrione (weeds [2]; SETFA, 31 g/ha): 32% | % damage, 1 g ai ha^−1 mesotrione (weeds [2]; [26]): 42% | colby (weeds [2]; [26]): 8 | % damage, no-mesotrione (weeds [2]; SETFA, 63 g/ha): 33% | % damage, 1 g ai ha^−1 mesotrione (weeds [2]; [27]): 62% | colby (weeds [2]; [27]): 5 | % damage, no-mesotrione (weeds [2]; SETFA, 125 g/ha): 57% | % damage, 1 g ai ha^−1 mesotrione (weeds [2]; [28]): 75% | colby (weeds [2]; [28]): 10 | % damage, no-mesotrione (weeds [2]; SETFA, 250 g/ha): 65% | % damage, 1 g ai ha^−1 mesotrione (weeds [2]; [29]): 75% | colby (weeds [2]; [29]): 5 | % damage, no-mesotrione (weeds [2]; SETFA, 500 g/ha): 70%
